Reference: patent US4228293A, “Iodo-A-23187 derivatives” (Eli Lilly and Company, priority 1978, dated 1980)
Entries after “also recorded” stand apart in the source; their conditions may differ.

Legend:
[1] = target: cation transport ATPase in liver mitochondria; test: In vitro inhibition of cation transport ATPase in liver mitochondria; assay type: biochemical
Description: In yet another aspect, the compounds of this invention are active as inhibitors of the enzyme ATPase. ATPase, an alkali-metal-sensitive enzyme found in cell membranes, is involved in the energy necessary for active transport. "Active transport" refers to the energy-requiring series of operations whereby intracellular and extracellular fluids maintain their compositions. Inhibitors of ATPase reduce the energy required for active transport. Table III summarizes the results of in vitro tests measuring inhibition of cation transport ATPase in liver mitochondria [measured as half effective concentration (Ic50) in mcg/ml].

[2] = test system: Staphylococcus aureus (H-Heatley strain, NRRL B-314); test: Antibacterial bioassay (Westhead); assay type: cell-based; details: S. aureus H-Heatley NRRL B-314 bioassay; free acid
Description: The compounds of this invention are useful antibacterial agents. In this aspect, these compounds may be used in the same manner in which the parent antibiotic is used, as described in U.S. Pat. No. 3,923,823. A bioassay for the antibacterial activity of A-23187 has been described by J. E. Westhead in Antimicrobial Agents and Chemotherapy 11 (5), 916-918 (1977). The test organism for this bioassay is Staphylococcus aureus (H-Heatley strain, NRRL B-314).

[3] = Acute toxicity in mice, intraperitoneal; details: mouse, in vivo, ip, mg/kg × 1, free acid
Method: The compounds of the present invention are, in general, less toxic than the parent antibiotic. Table II summarizes the acute toxicities of representative compounds in mice, expressed as LD50, when the compounds are administered intraperitoneally.

[4] = cited from earlier work

| SMILES | half effective concentration (Ic50), ATPase induced by K^+ monazomycin [1] | Bioassay [2] | LD50 [3] | half effective concentration (Ic50), ATPase induced by CaCl2 [1] | transport of Mg^2+ compared with Ca^2+ ([4]; Mg^2+ vs Ca^2+) | discrimination for divalent over monovalent cations ([4]; divalent vs monovalent cations) |
| --- | --- | --- | --- | --- | --- | --- |
| CNc1ccc2oc(C[C@H]3O[C@@]4(CC[C@H]3C)O[C@H]([C@H](C)C(=O)c3cc(I)c(I)[nH]3)[C@H](C)C[C@H]4C)nc2c1C(=O)O [23,24-diiodo-A-23187, 5-(methylamino)-2-[[3β,9α,11β-trimethyl-8-[1α-methyl-2-oxo-2-(4,5-diiodo-1H-pyrrol-2-yl)ethyl]-1,7-dioxaspiro-[5.5]undec-2β-yl]methyl]-4-benzoxazolecarboxylic acid] | 0.8 µg/mL | 560 µg/mL | 100 mg/kg | – | – | – |
| CNc1ccc2oc(C[C@H]3O[C@@]4(CC[C@H]3C)O[C@H]([C@H](C)C(=O)c3cc(I)c[nH]3)[C@H](C)C[C@H]4C)nc2c1C(=O)O [23-iodo-A-23187, 5-(methylamino)-2-[[3β,9α,11β-trimethyl-8-[1α-methyl-2-oxo-2-(4-iodo-1H-pyrrol-2-yl)ethyl]-1,7-dioxaspiro[5.5]undec-2β-yl]methyl]-4-benzoxazolecarboxylic acid] | < 0.05 µg/mL | 1331 µg/mL | 25 mg/kg | 5 µg/mL | – | – |
| CNc1ccc2oc(C[C@H]3O[C@@]4(CC[C@H]3C)O[C@H]([C@H](C)C(=O)c3ccc[nH]3)[C@H](C)C[C@H]4C)nc2c1C(=O)O [A-23187] | 0.5 µg/mL | 1060 µg/mL | 5.8 mg/kg | 0.5 µg/mL | transports Mg^2+ with a similar efficiency to Ca^2+ | substantially selective for the transport of divalent over monovalent cations; also recorded: not complete |
